According to patent US20220117938A1, “COMBINATON THERAPY WITH A DON PRODRUG AND AN IMMUNE CHECKPOINT INHIBITOR” (DRACEN PHARMACEUTICALS, INC., priority 2019, published 2022):

What was measured:
HCT116 tumors = assay: Anti-tumor efficacy of Compound 1 in the HCT116 xenograft model (Example 12); format: in vivo, mice
Experimental: Female BALB/c nude mice were inoculated subcutaneously in the right flank with HCT116 cells for tumor development. Nine days after tumor inoculation, mice with tumor sizes ranging from 90-260 mm^3 (average tumor size 155 mm^3) were selected and assigned into groups using stratified randomization with 8 mice per group based upon their tumor volumes. The treatments were started from the day of randomization (defined as D0), Group 1 was treated with Vehicle control, 10 ml/kg, IP, bid×21; Group 4 was treated with Compound 1, 1.4 mg/kg, SC, 5d ON, 2 d OFF×3 cycles; and Group 5 was treated with Compound 1, 3.3 mg/kg, IV, tiw, (Thu, Sat, Mon)×3 cycles. The tumor sizes were measured two times per week during the treatment. The entire study was terminated on D18 after start of the treatment. All treatments were well-tolerated without any adverse effects or significant body weight loss.

4T1 tumors = assay: Anti-tumor efficacy of Compound 1 with and without anti-PD-1 in the 4T1 murine mammary cancer model (Example 2A); format: in vivo, Mus musculus; settings: for Tumor volume (mm^3), Mean ± SEM: n = 8; for ILS (%) / MST: endpoint tumor volume 2000 mm^3; for RTV at day 25 / T/C (%) / TGI (%) / Tumor Size (mm^3) at day 25, Mean ± SEM: day 25
Experimental: Female BALB/c mice were inoculated subcutaneously at the mammary fat pat with 4T1 cells for tumor development. Six days after tumor inoculation, 48 mice with tumor size ranging from 49-88 mm^3 (average tumor size 59 mm^3) were selected and assigned into 6 groups using stratified randomization with 8 mice per group based upon their tumor volumes. The treatments were started from the day of randomization (defined as D0), Group 1 was treated with Vehicle (Tween 80:Ethanol:Saline—5:5:90 v/v/v), s.c. q.d.×14, Group 2 was treated with anti-PD-1 10 mg/kg i.p. q4d×4, Group 3 was treated with Compound 1 3 mg/kg s.c. q.d.×5D followed by 1 mg/kg s.c. q.d.×9D, Group 4 was treated with Compound 13 mg/kg s.c. q.d.×5D followed by 1 mg/kg s.c. q.d.×9D+anti-PD-1 10 mg/kg i.p. q4d×4, Group 5 was treated with Compound 11 mg/kg s.c. q.d.×14D and Group 6 was treated with Compound 11 mg/kg s.c. q.d.×14D+anti-PD-1 10 mg/kg i.p. q4d×4. The tumor sizes were measured three times per week during the treatment. The entire study was terminated on D42 after start of the treatment. In this study anti mPD-1 (catalog number BE0146) was used.
Animal Species: Mus musculus; Strain: BALB/c; Age: 6-8 weeks; Sex: female; Body weight (at treatment start): 20-24 g.
The 4T1 tumor cells were maintained in vitro as a monolayer culture in RPMI-1640 medium supplemented with 10% heat inactivated fetal bovine serum and 100 μg/mL penicillin streptomycin at 37° C. in an atmosphere of 5% CO2 in air. The tumor cells were routinely subcultured twice weekly by trypsin-EDTA treatment. The cells growing to a confluency around 70%-80% were harvested and counted for tumor inoculation. The cultured 4T1 cells were harvested, re-suspended in base medium at a density of 2×10^6 cells/mL with viability >90%. Each mouse was inoculated subcutaneously at the […] with 1×10^5 in 0.05 ml base medium for tumor development.
The treatments were started on day 6 after tumor inoculation when the tumor size reached 49-88 mm^3 (average tumor size 59 mm^3). Each group consisted of 8 tumor bearing mice. The testing article was administrated at the dosing volume indicated to the mice according to the predetermined regimen as shown Table 2A-1. Testing article formulations were prepared according to standard procedures. Details regarding tumor measurements and endpoints, and statistical analysis are provided in EXAMPLE 3.
Tumor sizes were measured three times a week in two dimensions using a caliper, and the volume expressed in mm^3 using the formula: V=0.5 a×b^2 where a and b are the long and short diameters of the tumor, respectively. The tumor sizes were then used for the calculations of both tumor growth inhibition (TGI) and T/C values.
TGI is calculated for each group using the formula: […]
TVTreatment_DayN is the average tumor volume of a treatment group on a given day, TVTreatment_Day0 is the average tumor volume of the treatment group on the first day of treatment, TVVehicle_DayN is the average tumor volume of the vehicle control group on a given day, and TVVehicle_Day0 is the average tumor volume of the vehicle group on the first day of treatment.
The T/C value (in percent) is an indication of antitumor effectiveness, T/C (%)=RTVTreatment/RTVControl×100% (RTVTreatment: the mean RTV of the treatment group; RTVControl: the mean RTV of the vehicle treated group). RTV (relative tumor volume)=TVDayN/TVDay0. TVDayN and TVDay0 is the tumor volume on day N and Day 0 respectively. T/C (%)≤42% is considered as significant antitumor activity and <10% is considered as highly significant antitumor activity by the National Cancer Institute criteria.
Animal survival curve: When an individual animal reached to the termination endpoint (TV>2000 mm^3), the mouse was euthanized. The time from treatment initiation to the termination was deemed as its survival time. Survival curve was plotted by Kaplan-Meier method. Median survival time (MST) was calculated for each group. […]

[1] = Group 4, 1.4 mg/kg SC 5 d ON 2 d OFF x3 cycles
[2] = Group 4, 1.4 mg/kg SC 5 d ON 2 d OFF x3 cycles, day 11
[3] = Group 5, 3.3 mg/kg IV tiw x3 cycles
[4] = Group 5, 3.3 mg/kg IV tiw x3 cycles, day 11

`CC(=O)N[C@@H](Cc1c[nH]c2ccccc12)C(=O)N[C@@H](CCC(=O)C=[N+]=[N-])C(=O)OC(C)C` [Compound 1, Isopropyl (S)-2-((S)-2-acetamido-3-(1H-indol-3-yl)propanamido)-6-diazo-5-oxohexanoate] was tested, and the “RTV at day 11” value (HCT116 tumors; [1]) was 4.061 ± 0.33, the “Tumor Size at day 11” value (HCT116 tumors; [1]) was 602 ± 72 mm^3 and the Tumor volume (HCT116 tumors; Group 4, 1.4 mg/kg SC 5 d ON 2 d OFF x3 cycles, day 0) was 155 ± 19 mm^3. For the same compound, the Tumor volume (HCT116 tumors; Group 4, 1.4 mg/kg SC 5 d ON 2 d OFF x3 cycles, day 4) was 227 ± 39 mm^3, the Tumor volume (HCT116 tumors; Group 4, 1.4 mg/kg SC 5 d ON 2 d OFF x3 cycles, day 7) was 294 ± 53 mm^3 and the T/C (HCT116 tumors; [2]) was 52.25%. The TGI (HCT116 tumors; [2]) was 53.92%, the Tumor volume (HCT116 tumors; [2]) was 602 ± 72 mm^3 and the Tumor volume (HCT116 tumors; Group 4, 1.4 mg/kg SC 5 d ON 2 d OFF x3 cycles, day 14) was 964 ± 176 mm^3. For the same compound, the “RTV at day 11” value (HCT116 tumors; [3]) was 3.70 ± 0.45, the “Tumor Size at day 11” value (HCT116 tumors; [3]) was 571 ± 82 mm^3 and the Tumor volume (HCT116 tumors; Group 5, 3.3 mg/kg IV tiw x3 cycles, day 0) was 156 ± 19 mm^3. For the same compound, the Tumor volume (HCT116 tumors; Group 5, 3.3 mg/kg IV tiw x3 cycles, day 4) was 188 ± 23 mm^3, the Tumor volume (HCT116 tumors; Group 5, 3.3 mg/kg IV tiw x3 cycles, day 7) was 378 ± 60 mm^3 and the T/C (HCT116 tumors; [4]) was 48.17%. The TGI (HCT116 tumors; [4]) was 57.23%, the Tumor volume (HCT116 tumors; [4]) was 571 ± 82 mm^3 and the Tumor volume (HCT116 tumors; Group 5, 3.3 mg/kg IV tiw x3 cycles, day 14) was 861 ± 134 mm^3. The Tumor volume (HCT116 tumors; Group 5, 3.3 mg/kg IV tiw x3 cycles, day 18) was 1354 ± 204 mm^3, the “Tumor volume (mm^3), Mean ± SEM” value (4T1 tumors; 1 mg/kg qdx14 s.c., Day 0) was 58 ± 3 mm^3 and the “Tumor volume (mm^3), Mean ± SEM” value (4T1 tumors; 1 mg/kg qdx14 s.c., Day 2) was 75 ± 4 mm^3. The “Tumor volume (mm^3), Mean ± SEM” value (4T1 tumors; 1 mg/kg qdx14 s.c., Day 4) was 85 ± 4 mm^3, the “Tumor volume (mm^3), Mean ± SEM” value (4T1 tumors; 1 mg/kg qdx14 s.c., Day 7) was 108 ± 4 mm^3 and the “Tumor volume (mm^3), Mean ± SEM” value (4T1 tumors; 1 mg/kg qdx14 s.c., Day 9) was 130 ± 10 mm^3. For the same compound, the “Tumor volume (mm^3), Mean ± SEM” value (4T1 tumors; 1 mg/kg qdx14 s.c., Day 11) was 158 ± 12 mm^3, the “Tumor volume (mm^3), Mean ± SEM” value (4T1 tumors; 1 mg/kg qdx14 s.c., Day 14) was 172 ± 11 mm^3 and the “Tumor volume (mm^3), Mean ± SEM” value (4T1 tumors; 1 mg/kg qdx14 s.c., Day 16) was 215 ± 17 mm^3. For the same compound, the “Tumor volume (mm^3), Mean ± SEM” value (4T1 tumors; 1 mg/kg qdx14 s.c., Day 18) was 300 ± 23 mm^3, the “Tumor volume (mm^3), Mean ± SEM” value (4T1 tumors; 1 mg/kg qdx14 s.c., Day 21) was 441 ± 31 mm^3 and the “Tumor volume (mm^3), Mean ± SEM” value (4T1 tumors; 1 mg/kg qdx14 s.c., Day 23) was 622 ± 44 mm^3. The “Tumor volume (mm^3), Mean ± SEM” value (4T1 tumors; 1 mg/kg qdx14 s.c., Day 25) was 782 ± 53 mm^3, the “Tumor volume (mm^3), Mean ± SEM” value (4T1 tumors; 3 mg/kg qdx5 then 1 mg/kg qdx9 s.c., Day 0) was 59 ± 3 mm^3 and the “Tumor volume (mm^3), Mean ± SEM” value (4T1 tumors; 3 mg/kg qdx5 then 1 mg/kg qdx9 s.c., Day 2) was 72 ± 4 mm^3. For the same compound, the “Tumor volume (mm^3), Mean ± SEM” value (4T1 tumors; 3 mg/kg qdx5 then 1 mg/kg qdx9 s.c., Day 4) was 76 ± 3 mm^3, the “Tumor volume (mm^3), Mean ± SEM” value (4T1 tumors; 3 mg/kg qdx5 then 1 mg/kg qdx9 s.c., Day 7) was 80 ± 3 mm^3 and the “Tumor volume (mm^3), Mean ± SEM” value (4T1 tumors; 3 mg/kg qdx5 then 1 mg/kg qdx9 s.c., Day 9) was 88 ± 6 mm^3. The “Tumor volume (mm^3), Mean ± SEM” value (4T1 tumors; 3 mg/kg qdx5 then 1 mg/kg qdx9 s.c., Day 11) was 113 ± 9 mm^3, the “Tumor volume (mm^3), Mean ± SEM” value (4T1 tumors; 3 mg/kg qdx5 then 1 mg/kg qdx9 s.c., Day 14) was 171 ± 12 mm^3 and the “Tumor volume (mm^3), Mean ± SEM” value (4T1 tumors; 3 mg/kg qdx5 then 1 mg/kg qdx9 s.c., Day 16) was 245 ± 17 mm^3. For the same compound, the “Tumor volume (mm^3), Mean ± SEM” value (4T1 tumors; 3 mg/kg qdx5 then 1 mg/kg qdx9 s.c., Day 18) was 356 ± 27 mm^3, the “Tumor volume (mm^3), Mean ± SEM” value (4T1 tumors; 3 mg/kg qdx5 then 1 mg/kg qdx9 s.c., Day 21) was 565 ± 37 mm^3 and the “Tumor volume (mm^3), Mean ± SEM” value (4T1 tumors; 3 mg/kg qdx5 then 1 mg/kg qdx9 s.c., Day 23) was 762 ± 62 mm^3. For the same compound, the “Tumor volume (mm^3), Mean ± SEM” value (4T1 tumors; 3 mg/kg qdx5 then 1 mg/kg qdx9 s.c., Day 25) was 1024 ± 75 mm^3, the “ILS (%)” value (4T1 tumors; Compound 1 1 mg/kg) was 13.8% and the “MST” value (4T1 tumors; Compound 1 1 mg/kg) was 33.0 days. The “ILS (%)” value (4T1 tumors; Compound 1 3/1 mg/kg) was 19.0%, the “MST” value (4T1 tumors; Compound 1 3/1 mg/kg) was 34.5 days and the “RTV at day 25” value (4T1 tumors; Cpd. 1 1 mg/kg) was 13.65 ± 1.13. The “T/C (%)” value (4T1 tumors; Cpd. 1 1 mg/kg) was 46.10%, the “TGI (%)” value (4T1 tumors; Cpd. 1 1 mg/kg) was 53.9% and the “Tumor Size (mm^3) at day 25, Mean ± SEM” value (4T1 tumors; Cpd. 1 1 mg/kg) was 782 ± 53 mm^3. For the same compound, the “RTV at day 25” value (4T1 tumors; Cpd. 1 3/1 mg/kg) was 17.45 ± 0.83, the “T/C (%)” value (4T1 tumors; Cpd. 1 3/1 mg/kg) was 58.95% and the “TGI (%)” value (4T1 tumors; Cpd. 1 3/1 mg/kg) was 41.05%. For the same compound, the “Tumor Size (mm^3) at day 25, Mean ± SEM” value (4T1 tumors; Cpd. 1 3/1 mg/kg) was 1024 ± 75 mm^3.
